Columns and labels:
IL-6 = IL-6 inhibition in LPS-stimulated THP-1 monocytes (HTRF); format: cell-based, human; conditions: Homo sapiens; THP-1 cells, 500 ng/mL LPS, 22 h, HTRF IL-6 readout; 10-point dose-response from 10 μM
Procedure, shortened: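 THP-1 cells serum-reduced (1% FBS, 24 h), then 5000 cells/well preincubated 2 h with compound (10-point 1:3 series from 10 μM, 0.1% DMSO) before 500 ng/mL LPS for 22 h at 37 °C. Secreted IL-6 quantified by HTRF 665/620 ratio; DMSO-normalised duplicates fitted to four-parameter EC50; above 10 μM, % inhibition at 10 μM given.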

[1] = system: primary human fibroblasts derived from IPF patients (LL29 cells); experiment: Inhibition of the fibrotic process: αSMA staining in TGF-β1 treated LL29 fibroblasts; format: cell-based; conditions: Homo sapiens, Fibroblast; for EC50: 96 h, TGF-β1 20 ng/mL, 4 days, % αSMA positive cells
Procedure, shortened: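 IPF patient-derived LL29 fibroblasts in 1% FBS medium got compound (11-point, 10 μM to 1.87 nM, 0.1% DMSO) plus TGF-β1 20 ng/mL, 4 days at 37° C. αSMA-positive live cells (SYTOX-excluded) were imaged, normalized to TGF-β1 controls and fitted for EC50; % inhibition at 10 μM given when EC50 >10 μM.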

SMILES	EC50 (IL-6)	EC50 [1]	inhibition at 10 µM ([1]; at 10 μM, given for EC50 of >10 μM, TGF-β1, αSMA, read-out: percent inhibition at 10 μM)
Oc1cncc(-c2cnc3[nH]nc(-c4cc5c(-c6cccs6)cccc5[nH]4)c3c2)c1 [Compound 711, 5-(3-(4-(Thiophen-2-yl)-1H-indol-2-yl)-1H-pyrazolo[3,4-b]pyridin-5-yl) pyridin-3-ol]	1960 nM	456 nM	–
CN(C)CCNc1cc(F)cc(-c2cccc3[nH]c(-c4n[nH]c5ncc(-c6cncc(OC7CCCCC7)c6)cc45)cc23)c1 [Compound 785, N^1-(3-(2-(5-(5-(Cyclohexyloxy)pyridin-3-yl)-1H-pyrazolo[3,4-b]pyridin-3-yl)-1H-indol-4-yl)-5-fluorophenyl)-N^2,N^2-dimethylethane-1,2-diamine]	1800 nM	1240 nM	–
c1ccc(COc2cncc(-c3cnc4[nH]nc(-c5cc6ncccc6[nH]5)c4c3)c2)cc1 [Compound 1006, 5-(5-(Benzyloxy)pyridin-3-yl)-3-(1H-pyrrolo[3,2-b]pyridin-2-yl)-1H-pyrazolo[3,4-b]pyridine]	168 nM	> 10000 nM	24.8%
